Laboratory results reported in patent US20180002247A1, “METHODS FOR CHIRAL RESOLUTION OF TROLOX” (BIOELECTRON TECHNOLOGY CORPORATION, priority 2014, published 2018).
≈ marks a conversion by molar mass, not a printed value.

Assay: Solubility assessment of (R)-Trolox in 12 solvents at 40° C.
Type: physicochemical
Conditions: for solubility: organic solvent or mixture, thermodynamic from solid
Description: (R)-Trolox (97.89% ee, chemical purity>99.99% AUC) (100 mg) was weighed out in 12 different vials. 12 different solvents were added (one volume at a time) to the different vials and the mixture was maintained at 40° C. The volume of each solvent required to dissolve 100 mg of (R)-Trolox was recorded and the solubility was subsequently calculated.

In the case of Cc1c(C)c2c(c(C)c1O)CCC(C)(C(=O)O)O2 (racemic) [(R)-Trolox, 6-hydroxy-2,5,7,8-tetramethylchroman-2-carboxylic acid], the “Solubility (in words)” value (all solvents except for pure water) is reported as “highly soluble”, the solubility (solvent 2-MeTHF) is reported as 524 mg/mL (≈ 2090 mM) and the solubility (solvent 5% water/ACN) is reported as 459 mg/mL (≈ 1830 mM). It also gave a solubility (solvent 5% water/EtOH) of 854 mg/mL (≈ 3410 mM), a solubility (solvent 5% water/IPA) of 978 mg/mL (≈ 3910 mM) and a solubility (solvent 5% water/MeOH) of 1040 mg/mL (≈ 4150 mM). It also gave a solubility (solvent ACN) of 195 mg/mL (≈ 779 mM), a solubility (solvent EtOAc) of 209 mg/mL (≈ 835 mM) and a solubility (solvent EtOH) of 494 mg/mL (≈ 1970 mM). For the same molecule, the solubility (solvent IPA) was 523 mg/mL (≈ 2090 mM), the solubility (solvent IPAc) was 252 mg/mL (≈ 1010 mM) and the solubility (solvent MeOH) was 1000 mg/mL (≈ 4010 mM). The “Solubility at 40° C.” value (solvent water) was “not soluble”.
